{
  "source": "patent US8815882B2",
  "about": "“Pyrazole aminopyrimidine derivatives as LRRK2 modulators” (Genentech, Inc., priority 2010, dated 2014)",
  "data": [
    {"target": "T1, LRRK2 (Homo sapiens, UniProt Q5S007, G2019S)", "T1 construct": "purchased Invitrogen PV4882 (lot 567054A)", "T1 sequence (Q5S007 whole entry G2019S)": "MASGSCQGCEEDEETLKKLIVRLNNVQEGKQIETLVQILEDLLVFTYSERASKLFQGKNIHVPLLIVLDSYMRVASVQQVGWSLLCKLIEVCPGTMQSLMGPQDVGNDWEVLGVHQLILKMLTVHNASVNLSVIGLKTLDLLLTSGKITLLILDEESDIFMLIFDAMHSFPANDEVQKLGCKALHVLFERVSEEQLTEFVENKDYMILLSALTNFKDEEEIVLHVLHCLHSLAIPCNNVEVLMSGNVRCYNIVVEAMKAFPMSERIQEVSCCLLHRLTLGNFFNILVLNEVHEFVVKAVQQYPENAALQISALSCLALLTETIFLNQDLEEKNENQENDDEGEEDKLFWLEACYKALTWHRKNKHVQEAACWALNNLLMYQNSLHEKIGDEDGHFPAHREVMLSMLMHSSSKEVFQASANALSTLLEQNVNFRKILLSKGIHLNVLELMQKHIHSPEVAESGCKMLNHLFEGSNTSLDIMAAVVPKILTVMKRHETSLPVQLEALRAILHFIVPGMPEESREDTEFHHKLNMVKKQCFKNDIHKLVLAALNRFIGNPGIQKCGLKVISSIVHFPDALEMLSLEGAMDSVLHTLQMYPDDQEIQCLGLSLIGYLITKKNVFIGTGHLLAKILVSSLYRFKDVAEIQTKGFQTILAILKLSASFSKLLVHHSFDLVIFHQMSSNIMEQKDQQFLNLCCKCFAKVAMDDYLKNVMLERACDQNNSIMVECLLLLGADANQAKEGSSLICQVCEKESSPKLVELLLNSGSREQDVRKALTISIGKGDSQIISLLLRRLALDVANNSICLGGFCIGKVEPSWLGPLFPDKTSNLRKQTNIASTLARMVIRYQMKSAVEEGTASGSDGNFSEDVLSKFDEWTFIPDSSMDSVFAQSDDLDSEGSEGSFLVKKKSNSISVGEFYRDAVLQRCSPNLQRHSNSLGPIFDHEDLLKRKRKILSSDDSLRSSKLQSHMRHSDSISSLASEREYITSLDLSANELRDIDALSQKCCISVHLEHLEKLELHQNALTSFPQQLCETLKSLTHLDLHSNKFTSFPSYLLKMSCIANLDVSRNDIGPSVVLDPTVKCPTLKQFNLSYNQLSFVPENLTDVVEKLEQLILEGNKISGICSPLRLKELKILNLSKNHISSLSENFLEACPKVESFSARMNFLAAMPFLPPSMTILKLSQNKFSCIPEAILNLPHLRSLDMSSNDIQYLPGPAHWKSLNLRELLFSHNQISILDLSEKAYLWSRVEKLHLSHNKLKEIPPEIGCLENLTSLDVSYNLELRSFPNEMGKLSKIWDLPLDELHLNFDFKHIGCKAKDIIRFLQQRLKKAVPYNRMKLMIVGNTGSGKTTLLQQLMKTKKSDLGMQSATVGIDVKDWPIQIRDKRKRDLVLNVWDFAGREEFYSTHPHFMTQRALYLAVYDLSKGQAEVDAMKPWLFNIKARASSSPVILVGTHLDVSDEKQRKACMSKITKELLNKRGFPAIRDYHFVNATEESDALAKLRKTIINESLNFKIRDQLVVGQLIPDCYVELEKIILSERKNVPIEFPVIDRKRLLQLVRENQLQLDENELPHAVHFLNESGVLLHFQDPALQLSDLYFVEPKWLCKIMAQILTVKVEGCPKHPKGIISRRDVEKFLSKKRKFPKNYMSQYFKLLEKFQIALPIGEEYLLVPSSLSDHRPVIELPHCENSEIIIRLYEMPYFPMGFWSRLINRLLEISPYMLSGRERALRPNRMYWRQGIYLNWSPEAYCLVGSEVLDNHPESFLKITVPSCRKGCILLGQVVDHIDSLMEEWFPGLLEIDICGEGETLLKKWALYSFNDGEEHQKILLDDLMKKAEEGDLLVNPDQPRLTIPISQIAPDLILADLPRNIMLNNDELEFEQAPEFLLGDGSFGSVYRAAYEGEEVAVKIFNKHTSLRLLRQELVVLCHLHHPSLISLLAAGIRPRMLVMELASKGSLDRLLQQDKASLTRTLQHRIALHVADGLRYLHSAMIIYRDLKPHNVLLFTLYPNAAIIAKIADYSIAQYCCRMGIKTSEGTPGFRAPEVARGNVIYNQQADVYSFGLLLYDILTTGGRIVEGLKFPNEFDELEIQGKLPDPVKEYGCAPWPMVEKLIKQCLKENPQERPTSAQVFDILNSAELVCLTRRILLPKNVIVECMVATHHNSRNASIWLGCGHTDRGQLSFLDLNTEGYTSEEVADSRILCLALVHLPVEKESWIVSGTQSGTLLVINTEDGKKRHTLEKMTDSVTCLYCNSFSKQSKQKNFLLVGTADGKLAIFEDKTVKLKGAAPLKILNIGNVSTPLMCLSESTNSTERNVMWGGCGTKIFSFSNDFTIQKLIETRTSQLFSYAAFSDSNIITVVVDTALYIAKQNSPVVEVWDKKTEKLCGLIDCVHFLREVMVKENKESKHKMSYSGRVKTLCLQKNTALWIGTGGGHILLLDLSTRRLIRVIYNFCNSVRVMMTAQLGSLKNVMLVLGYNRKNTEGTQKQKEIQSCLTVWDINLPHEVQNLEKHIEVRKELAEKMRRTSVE", "assay": "In Vitro LRRK2 Assay (LabChip 3000, fluorescently-labeled peptide substrate, ATP)", "format": "biochemical", "settings": "Table 9; LRRK2 Ki (micromolar); read-out: LRRK2 Ki (KI)", "how_it_was_run": "(§1)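 LRRK2, fluorescent peptide substrate (diluted to 4 μM before mixing), ATP and compound were incubated 2 h in the dark, then stopped. Phosphorylated and unphosphorylated peptide were separated by capillary electrophoresis and quantified by fluorescence. Ki was fitted with a tight-binding equation including enzyme concentration, S and Km; IC50 or percent inhibition were also reported.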", "units": {"Ki": "nM"}, "values": [
      {"smiles": "CNc1nc(Nc2cnn(C3CCOCC3)c2Cl)ncc1C#N", "note": "[Example 383, 2-(5-chloro-1-(tetrahydro-2H-pyran-4-yl)-1H-pyrazol-4-ylamino)-4-(methylamino) pyrimidine-5-carbonitrile]", "Ki": 9.6},
      {"smiles": "CCNc1nc(Nc2cn(C3CCOCC3)nc2C)ncc1C#N", "note": "[Example 372, 4-(ethylamino)-2-(3-methyl-1-(tetrahydro-2H-pyran-4-yl)-1H-pyrazol-4-ylamino) pyrimidine-5-carbonitrile]", "Ki": 24},
      {"smiles": "COc1nc(Nc2cnn(C)c2C)ncc1C#N", "note": "[Example 375, 2-(1,5-dimethyl-1H-pyrazol-4-ylamino)-4-methoxy-pyrimidine-5-carbonitrile]", "Ki": 145},
      {"smiles": "CNc1nc(Nc2cn(-c3cc(F)cc(F)c3)nc2C)ncc1C#N", "note": "[Example 367, 2-(1-(3,5-difluorophenyl)-3-methyl-1H-pyrazol-4-ylamino)-4-(methylamino) pyrimidine-5-carbonitrile]", "Ki": 1.8}
    ]},
    {"target": "T1, LRRK2", "assay": "In Vitro LRRK2 Assay (LabChip 3000, fluorescently-labeled peptide substrate, ATP)", "format": "biochemical", "settings": "Table 10; LRRK2 Ki (micromolar); read-out: LRRK2 Ki (KI)", "how_it_was_run": "as §1", "units": {"Ki": "nM"}, "values": [
      {"smiles": "CCc1nn(C(C)(C)C#N)cc1Nc1ncc(C(F)(F)F)c(NC)n1", "note": "[Example 410, 2-(3-ethyl-4-(4-(methylamino)-5-(trifluoromethyl)pyrimidin-2-ylamino)-1H-pyrazol-1-yl)-2-methylpropanenitrile]", "Ki": 10},
      {"smiles": "CNc1nc(Nc2cn([C@H](C)C#N)nc2C)ncc1C(F)(F)F", "note": "[Example 437]", "Ki": 6.5},
      {"smiles": "CNc1nc(Nc2cnn(C(C)(C)C(=O)NCC3CC3)c2C)ncc1C(F)(F)F", "note": "[Example 426, N-(cyclopropylmethyl)-2-methyl-2-(5-methyl-4-(4-(methylamino)-5-(trifluoromethyl)pyrimidin-2-ylamino)-1H-pyrazol-1-yl)propanamide]", "Ki": 9},
      {"smiles": "CNc1nc(Nc2cn([C@@H](C)C(=O)N3CCCC3)nc2C)ncc1C(F)(F)F", "note": "[Example 405, (S)-2-(3-methyl-4 (4-(methylamino)-5-(trifluoromethyl)pyrimidin-2-ylamino)-1H-pyrazol-1-yl)-1-(pyrrolidin-1-yl)propan-1-one]", "Ki": 22}
    ]},
    {"target": "T1, LRRK2", "assay": "In Vitro LRRK2 Assay (LabChip 3000, fluorescently-labeled peptide substrate, ATP)", "format": "biochemical", "settings": "read-out: LRRK2 Ki (KI), Table 7", "how_it_was_run": "as §1", "units": {"Ki": "nM"}, "values": [
      {"smiles": "CNc1nc(Nc2cc(C3CC3)nn2C)ncc1Cl", "note": "[Example 45, 5-Chloro-N^2-(5-cyclopropyl-2-methyl-2H-pyrazol-3-yl)-N^4-methyl-pyrimidine-2,4-diamine]", "Ki": 13.4},
      {"smiles": "COc1nc(Nc2cnn(C)c2Cl)ncc1Cl", "note": "[Example 21, 5-Chloro-N-(5-chloro-1-methyl-1H-pyrazol-4-yl)-4-methoxy-pyrimidin-2-amine]", "Ki": 20},
      {"smiles": "COc1nc(Nc2cnn(-c3ccc(C#N)cc3)c2C)ncc1Cl", "note": "[Example 83, 4-[4-(5-Chloro-4-methoxy-pyrimidin-2-ylamino)-5-methyl-pyrazol-1-yl]-benzonitrile]", "Ki": 9},
      {"smiles": "COc1nc(Nc2cn(CC(C)(C)O)nc2C)ncc1Cl", "note": "[Example 23]", "Ki": 27},
      {"smiles": "Cc1c(Nc2ncc(Cl)c(OCC(F)F)n2)cnn1C", "note": "[Example 63, 5-chloro-4-(2,2-difluoroethoxy)-N-(1,5-dimethyl-1H-pyrazol-4-yl)pyrimidin-2-amine]", "Ki": 24},
      {"smiles": "COc1nc(Nc2cnn(C3CCN(C(=O)C4(C)CC4)CC3)c2C)ncc1Cl", "note": "[Example 67, (4-(4-(5-chloro-4-methoxy-pyrimidin-2-ylamino)-5-methyl-1H-pyrazol-1-yl)piperidin-1-yl)(1-methylcyclo-propyl) methanone]", "Ki": 89}
    ]},
    {"target": "T1, LRRK2", "assay": "In Vitro LRRK2 Assay (LabChip 3000, fluorescently-labeled peptide substrate, ATP)", "format": "biochemical", "settings": "read-out: LRRK2 Ki (KI), Table 8", "how_it_was_run": "as §1", "units": {"Ki": "nM"}, "values": [
      {"smiles": "CNc1nc(Nc2cn([C@H]3CCN(C4COC4)C3)nc2C)ncc1C(F)(F)F", "note": "[Example 276, N4-Methyl-N2-[3-methyl-1-((S)-1-oxetan-3-yl-pyrrolidin-3-yl)-1H-pyrazol-4-yl]-5-trifluoromethyl-pyrimidine-2,4-diamine]", "Ki": 3.9},
      {"smiles": "CCNc1nc(Nc2cn(C3CCNCC3F)nc2C)ncc1C(F)(F)F", "note": "(centres unmarked) [Example 333, N4-Ethyl-N2-[1-(3-fluoro-piperidin-4-yl)-3-methyl-1H-pyrazol-4-yl]-5-trifluoromethyl-pyrimidine-2,4-diamine]", "Ki": 0.7},
      {"smiles": "CCNc1nc(Nc2cnn(CC)c2C)ncc1Br", "note": "[Example 107, 5-bromo-N4-ethyl-N2-(1-ethyl-5-methyl-1H-pyrazol-4-yl)pyrimidine-2,4-diamine]", "Ki": 0.43},
      {"smiles": "CNc1nc(Nc2cn(C3CCN(C(=O)C4CC4)CC3)nc2C)ncc1C(F)(F)F", "note": "[Example 136, cyclopropyl(4-(3-methyl-4-(4-(methylamino)-5-(trifluoromethyl)pyrimidin-2-ylamino)-1H-pyrazol-1-yl)piperidin-1-yl)methanone]", "Ki": 9.3},
      {"smiles": "CNc1nc(Nc2cnn(CCF)c2C)ncc1C(F)(F)F", "note": "[Example 133, N2-(1-(2-fluoroethyl)-5-methyl-1H-pyrazol-4-yl)-N4-methyl-5-(trifluoromethyl) pyrimidine-2,4-diamine]", "Ki": 1.8},
      {"smiles": "CNc1nc(Nc2cnn(-c3ccc(S(C)(=O)=O)cc3)c2C)ncc1C(F)(F)F", "note": "[Example 125, N4-methyl-N2-(5-methyl-1-(4-(methylsulfonyl)phenyl)-1H-pyrazol-4-yl)-5-(trifluoromethyl) pyrimidine-2,4-diamine]", "Ki": 4.7},
      {"smiles": "CNc1nc(Nc2cn(C3CN(CC(F)(F)F)C3)nc2C)ncc1C(F)(F)F", "note": "[Example 202, N4-methyl-N2-(3-methyl-1-(1-(2,2,2-trifluoroethyl)azetidin-3-yl)-1H-pyrazol-4-yl)-5-(trifluoromethyl) pyrimidine-2,4-diamine]", "Ki": 34},
      {"smiles": "CNc1nc(Nc2cn([C@@H](C)COC)nc2C)ncc1C(F)(F)F", "note": "[Example 275, N2-[1-((S)-2-Methoxy-1-methyl-ethyl)-3-methyl-1H-pyrazol-4-yl]-N4-methyl-5-trifluoromethyl-pyrimidine-2,4-diamine]", "Ki": 8.9},
      {"smiles": "CNc1nc(Nc2cnn(C3CCCOC3)c2C)ncc1C(F)(F)F", "note": "(centres unmarked) [Example 231, N4-methyl-N2-(5-methyl-1-(tetrahydro-2H-pyran-3-yl)-1H-pyrazol-4-yl)-5-(trifluoromethyl) pyrimidine-2,4-diamine]", "Ki": 1.8},
      {"smiles": "Cc1nc(Nc2cn(-c3ccc(S(C)(=O)=O)cc3)nc2C)ncc1Cl", "note": "[Example 173, 5-chloro-4-methyl-N-(3-methyl-1-(4-(methylsulfonyl)phenyl)-1H-pyrazol-4-yl)pyrimidin-2-amine]", "Ki": 484},
      {"smiles": "Cc1c(Nc2ncc(Cl)c(NCC(F)F)n2)cnn1C", "note": "[Example 172, 5-chloro-N4-(2,2-difluoroethyl)-N2-(1,5-dimethyl-1H-pyrazol-4-yl)pyrimidine-2,4-diamine]", "Ki": 7},
      {"smiles": "CNc1nc(Nc2cnn(Cc3ccn(C)n3)c2C)ncc1C(F)(F)F", "note": "[Example 324, N4-Methyl-N2-[5-methyl-1-(1-methyl-1H-pyrazol-3-ylmethyl)-1H-pyrazol-4-yl]-5-trifluoromethyl-pyrimidine-2,4-diamine]", "Ki": 0.6},
      {"smiles": "CNc1nc(Nc2cnn(C)c2C(C)C)ncc1C(F)(F)F", "note": "[Example 223, N2-(5-isopropyl-1-methyl-1H-pyrazol-4-yl)-N4-methyl-5-(trifluoromethyl) pyrimidine-2,4-diamine]", "Ki": 14},
      {"smiles": "CNc1nc(Nc2cn(Cc3cccnn3)nc2C)ncc1C(F)(F)F", "note": "[Example 310, N4-Methyl-N2-(3-methyl-1-pyridazin-3-ylmethyl-1H-pyrazol-4-yl)-5-trifluoromethyl-pyrimidine-2,4-diamine]", "Ki": 9.3},
      {"smiles": "CNc1nc(Nc2cn(C(F)F)nc2C)ncc1Br", "note": "[Example 256, 5-Bromo-N2-(1-difluoromethyl-3-methyl-1H-pyrazol-4-yl)-N4-methyl-pyrimidine-2,4-diamine]", "Ki": 2.2},
      {"smiles": "CNc1nc(Nc2cnn(CC3CC3)c2Cl)ncc1C(F)(F)F", "note": "[Example 146, N2-(5-chloro-1-(cyclopropyl-methyl)-1H-pyrazol-4-yl)-N4-methyl-5-(trifluoromethyl) pyrimidine-2,4-diamine]", "Ki": 0.3},
      {"smiles": "CCn1ncc(Nc2ncc(C(F)(F)F)c(NC)n2)c1Cl", "note": "[Example 139, N2-(5-chloro-1-ethyl-1H-pyrazol-4-yl)-N4-methyl-5-(trifluoromethyl) pyrimidine-2,4-diamine]", "Ki": 2},
      {"smiles": "CCNc1nc(Nc2cn(C3CCN(C(=O)C4CC4)CC3)nc2C)ncc1C(F)(F)F", "note": "[Example 183, cyclopropyl(4-(4-(4-(ethylamino)-5-(trifluoromethyl)pyrimidin-2-ylamino)-3-methyl-1H-pyrazol-1-yl)piperidin-1-yl)methanone]", "Ki": 0.6},
      {"smiles": "CNc1nc(Nc2cnn(C3CCN(C)CC3)c2C)ncc1C(F)(F)F", "note": "[Example 210, N4-methyl-N2-(5-methyl-1-(1-methylpiperidin-4-yl)-1H-pyrazol-4-yl)-5-(trifluoromethyl) pyrimidine-2,4-diamine]", "Ki": 7.1},
      {"smiles": "CNc1nc(Nc2cnn(C3CCCC3O)c2C)ncc1C(F)(F)F", "note": "(centres unmarked) [Example 334, 2-[5-Methyl-4-(4-methylamino-5-trifluoromethyl-pyrimidin-2-ylamino)-pyrazol-1-yl]-cyclopentanol]", "Ki": 6.3},
      {"smiles": "CNc1nc(Nc2cnn(C3CCN(CC(F)(F)F)CC3)c2C)ncc1C(F)(F)F", "note": "[Example 91, N4-methyl-N2-(5-methyl-1-(1-(2,2,2-trifluoroethyl)piperidin-4-yl)-1H-pyrazol-4-yl)-5-(trifluoromethyl) pyrimidine-2,4-diamine]", "Ki": 4.1},
      {"smiles": "CNc1nc(Nc2cn(-c3ccncc3C)nc2C)ncc1C(F)(F)F", "note": "[Example 269, N4-Methyl-N2-[3-methyl-1-(3-methyl-pyridin-4-yl)-1H-pyrazol-4-yl]-5-trifluoromethyl-pyrimidine-2,4-diamine]", "Ki": 9.1},
      {"smiles": "CCNc1nc(Nc2cn(C3CCN(C4COC4)CC3F)nc2C)ncc1C(F)(F)F", "note": "(centres unmarked) [Example 319, N4-Ethyl-N2-[1-(3-fluoro-1-oxetan-3-yl-piperidin-4-yl)-3-methyl-1H-pyrazol-4-yl]-5-trifluoromethyl-pyrimidine-2,4-diamine]", "Ki": 0.3}
    ]},
    {"target": "T1, LRRK2", "assay": "In Vitro LRRK2 Assay (LabChip 3000, fluorescently-labeled peptide substrate, ATP)", "format": "biochemical", "settings": "read-out: LRRK2 Ki given in the example", "how_it_was_run": "as §1", "units": {"Ki": "nM"}, "values": [
      {"smiles": "CNc1nc(Nc2cc(C(=O)N3CCOCC3)nn2C)ncc1Cl", "note": "[Example 393, (5-(5-chloro-4-(methylamino)pyrimidin-2-ylamino)-1-methyl-1H-pyrazol-3-yl)(morpholino)methanone]", "Ki": 160}
    ]}
  ]
}
